{
  "source": "patent US20120245229A1",
  "about": "“METHOD FOR TREATING NEUROPATHIC PAIN” (priority 2009, published 2012)",
  "key": {"[1]": {"system": "complete Freund's adjuvant (CFA)-evoked heat hyperalgesia", "assay": "CFA-evoked heat hyperalgesia (paw withdrawal latency, Hargreaves)", "format": "in vivo, mice", "conditions": "intrathecal, post-CFA day 3; DHA and EPA 10 μg", "procedure": "(§1) Animals and pain models. Adult CD1 mice (male, 25-32 g) were used for most experiments. Knockout mice were used lacking TNFR1/II (Tnfrsf1a/1b^−/−) and TRPV1 (Trpv1^−/−) and C57BL/6 wild-type control mice, all from Jackson, for some experiments. All animal procedures performed in this study were approved by the Harvard Medical Area Standing Committee on Animals. 20 μl of diluted formalin (5%), carrageenan (CRG, 1%), or complete Freund's adjuvant (CFA) were injected into the plantar surface of a hindpaw to produce acute, persistent, or chronic inflammatory pain, respectively. Postoperative pain was also produced through hindpaw incision^36 and neuropathic pain by ligation of the spinal nerve^37.\nReagents and administration. RvE1 and RvD1 were suspended in 1% or 10% ethanol as vehicle for investigating acute (<1 h) and persistent (1-6 h) effects of resolvins on inflammatory pain. The reagents (10 μl) were delivered to the cerebral spinal fluid via intrathecal injection made by a spinal cord puncture between the L5 and L6 level with a 30G needle^38.\n(§2) Behavioral analysis. Mice were habituated in the testing environment for two days and performed behavioral testing in a blinded manner. Formalin-evoked spontaneous inflammatory pain was assessed by measuring duration (seconds) animals spent on licking/flinching the affected paws every 5 min for 45 min. Capsaicin-induced spontaneous pain was aslo assessed for 10 min. For testing mechanical sensitivity, mice were put in boxes on an elevated metal mesh floor and stimulated hindpaw with a series of von Frey hairs with logarithmically incrementing stiffness (0.02-2.56 grams, Stoelting), presented perpendicular to the plantar surface. It was determined the 50% paw withdrawal threshold using Dixon's up-down method^40. For testing heat sensitivity, mice were placed in plastic boxes and tested heat sensitivity using Hargreaves radiant heat apparatus (IITC Life Science Inc.). The basal paw withdrawal latency was adjusted to 9-12 seconds and set a cut-off of 20 seconds to prevent tissue damage. The percent maximal possible antinociceptive effect (% M.P.E) was calculated using the equation % M.P.E.=[(PL−BL2)/(BL1−BL2)]×100. BL1, baseline latency before inflammation; BL2, baseline latency after inflammation but before drug injection; PL, latency post drug injection.\nIntrathecal injection. To avoid systemic effects of drugs and target spinal mechanisms, drugs were delivered into cerebral spinal fluid (CSF) space around lumbosacral spinal cord via intrathecal (i.t.) administration. Spinal cord puncture was made with a 30G needle between the L5 and L6 level to deliver the reagents (10 μl) to the cerebral spinal fluid (Hylden and Wilcox, 1980)^5. […] In addition to spinal cord cells, intrathecal drug administration also affects DRG cells^6,7.\nThe anti-hyperalgesic efficacy of RvE1 prepared in 1% and 10% ethanol was compared on post-CFA day 3."}, "[2]": {"system": "carrageenan (CRG)-elicited heat hyperalgesia", "assay": "Carrageenan (CRG)-elicited heat hyperalgesia", "format": "in vivo, mice", "conditions": "intraplantar pretreatment, 20 ng, 10 min before carrageenan", "procedure": "as §1, §2\nResolvins were also used for intraplantar injection. […]"}, "[3]": {"system": "paw incision-induced postoperative pain", "assay": "Postoperative pain model induced by hindpaw incision", "format": "in vivo, mice", "conditions": "intraplantar 20 ng, 10 min before paw incision", "procedure": "as §1\nBehavioral analysis. Mice were habituated in the testing environment for two days and performed behavioral testing in a blinded manner. Formalin-evoked spontaneous inflammatory pain was assessed by measuring duration (seconds) animals spent on licking/flinching the affected paws every 5 min for 45 min. Capsaicin-induced spontaneous pain was aslo assessed for 10 min. […] It was determined the 50% paw withdrawal threshold using Dixon's up-down method^40. […] The percent maximal possible antinociceptive effect (% M.P.E) was calculated using the equation % M.P.E.=[(PL−BL2)/(BL1−BL2)]×100. […]"}, "inflammatory pain": {"system": "inflammatory pain", "assay": "Inflammatory pain models induced by formalin or CFA (summary statements)", "format": "in vivo, mouse", "procedure": "as §1, §2"}},
  "data": [
    {"smiles": "CC/C=C\\C[C@H](O)/C=C/C=C\\C=C\\C=C\\[C@@H](O)[C@@H](O)C/C=C\\CCC(=O)O", "note": "[RvD1]", "values": [
      {"measurement": "CFA-evoked heat hyperalgesia", "setting": "[1]", "value": "Attenuation"},
      {"measurement": "CRG-evoked heat hyperalgesia", "setting": "[2]", "value": "substantially attenuated"},
      {"measurement": "paw incision-induced mechanical allodynia", "setting": "[3]", "value": "attenuates the development of paw incision-induced mechanical allodynia"},
      {"measurement": "pain-like behaviors", "setting": "inflammatory pain", "value": "potently inhibit"}
    ]}
  ]
}
